Test results reported in ChEMBL document CHEMBL6071207, “In Vivo-Active Soluble Epoxide Hydrolase-Targeting PROTACs with Improved Potency and Stability” (ACS Med Chem Lett, 2024).
Blank lines part the entries; values can stand above or below the molecule they belong to. Active and inactive are the calls of the source. No cut-off for these calls is given here.

Columns and labels:
[1] = target: T1, Bifunctional epoxide hydrolase 2 (Mus musculus, UniProt P34914); experiment: Inhibition of mouse recombinant sEH using fluorogenic substrate
T1 sequence (P34914 whole entry): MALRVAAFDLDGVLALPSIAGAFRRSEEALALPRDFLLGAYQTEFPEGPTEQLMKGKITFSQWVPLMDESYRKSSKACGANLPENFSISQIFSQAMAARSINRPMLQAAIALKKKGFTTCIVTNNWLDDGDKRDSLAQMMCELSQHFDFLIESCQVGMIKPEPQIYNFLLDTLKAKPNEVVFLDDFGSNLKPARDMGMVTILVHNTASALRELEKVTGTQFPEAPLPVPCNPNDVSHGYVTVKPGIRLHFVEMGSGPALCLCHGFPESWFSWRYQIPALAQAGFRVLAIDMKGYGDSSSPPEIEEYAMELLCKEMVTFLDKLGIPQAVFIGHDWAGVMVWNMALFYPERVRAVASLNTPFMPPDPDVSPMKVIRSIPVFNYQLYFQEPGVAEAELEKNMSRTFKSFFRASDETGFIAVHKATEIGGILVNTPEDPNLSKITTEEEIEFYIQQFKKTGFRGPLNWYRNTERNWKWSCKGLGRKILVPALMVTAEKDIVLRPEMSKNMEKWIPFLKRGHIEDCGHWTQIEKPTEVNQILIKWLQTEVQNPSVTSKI

[2] = system: HepG2; experiment: Cytotoxicity against human HepG2 cells assessed as cell viability at 1 uM incubated for 24 hrs by MTT assay; details: HepG2, 24 h, read-out: Activity
[3] = Half life in male CD-1 mouse at 10 mg/kg, ip measured up to 24 hrs by LC-MS/MS analysis; assay type: ADME, organism-based; details: in vivo
[4] = Tmax in male CD-1 mouse at 10 mg/kg, ip measured up to 24 hrs by LC-MS/MS analysis; assay type: ADME, organism-based; details: in vivo
[5] = Cmax in male CD-1 mouse at 10 mg/kg, ip measured up to 24 hrs by LC-MS/MS analysis; assay type: ADME, organism-based; details: in vivo
[6] = AUC (0 to infinity) in male CD-1 mouse at 10 mg/kg, ip measured up to 24 hrs by LC-MS/MS analysis; assay type: ADME, organism-based; details: in vivo
[7] = MRT (0 to infinity) in male CD-1 mouse at 10 mg/kg, ip measured up to 24 hrs by LC-MS/MS analysis; assay type: ADME, organism-based; details: in vivo
[8] = Chemical stability of compound in cell culture medium assessed as degradation measured after 24 hrs by LC-MS analysis; assay type: physicochemical; details: read-out: Drug degradation
[9] = Chemical stability of compound in cell culture medium assessed as half life measured for 24 hrs by LC-MS analysis; assay type: physicochemical
[10] = Metabolic stability in mouse liver microsome assessed as half life incubated for 5 to 45 mins in presence of NADPH by UPLC-MS/MS analysis; assay type: ADME; details: liver microsomes, time 5-45 min
[11] = Metabolic stability in mouse liver microsome assessed as intrinsic clearance incubated for 5 to 45 mins in presence of NADPH by UPLC-MS/MS analysis; assay type: ADME; details: liver microsomes, time 5-45 min, read-out: CLH
[12] = Metabolic stability in mouse liver microsome assessed as parent compound remaining incubated for 5 to 45 mins in absence of NADPH by UPLC-MS/MS analysis; assay type: ADME; details: microsomes, time 5-45 min
[13] = system: HEK293T; experiment: Inhibition of IRE1alpha phosphorylation in HEK293T cells at 100 nM pretreated with compound for 12 hrs followed by thapsigargin addition and measured after 24 hrs by immunoblotting analysis; assay type: cell-based; details: Homo sapiens, time 36.0 hrs
[14] = target: T2, Eukaryotic translation initiation factor 2-alpha kinase 3 (Homo sapiens) (UniProt Q9NZJ5); experiment: Inhibition of PERK phosphorylation in HEK293T cells at 100 nM pretreated with compound for 12 hrs followed by thapsigargin addition and measured after 24 hrs by immunoblotting analysis; assay type: cell-based; details: time 36.0 hrs
T2 sequence (whole entry): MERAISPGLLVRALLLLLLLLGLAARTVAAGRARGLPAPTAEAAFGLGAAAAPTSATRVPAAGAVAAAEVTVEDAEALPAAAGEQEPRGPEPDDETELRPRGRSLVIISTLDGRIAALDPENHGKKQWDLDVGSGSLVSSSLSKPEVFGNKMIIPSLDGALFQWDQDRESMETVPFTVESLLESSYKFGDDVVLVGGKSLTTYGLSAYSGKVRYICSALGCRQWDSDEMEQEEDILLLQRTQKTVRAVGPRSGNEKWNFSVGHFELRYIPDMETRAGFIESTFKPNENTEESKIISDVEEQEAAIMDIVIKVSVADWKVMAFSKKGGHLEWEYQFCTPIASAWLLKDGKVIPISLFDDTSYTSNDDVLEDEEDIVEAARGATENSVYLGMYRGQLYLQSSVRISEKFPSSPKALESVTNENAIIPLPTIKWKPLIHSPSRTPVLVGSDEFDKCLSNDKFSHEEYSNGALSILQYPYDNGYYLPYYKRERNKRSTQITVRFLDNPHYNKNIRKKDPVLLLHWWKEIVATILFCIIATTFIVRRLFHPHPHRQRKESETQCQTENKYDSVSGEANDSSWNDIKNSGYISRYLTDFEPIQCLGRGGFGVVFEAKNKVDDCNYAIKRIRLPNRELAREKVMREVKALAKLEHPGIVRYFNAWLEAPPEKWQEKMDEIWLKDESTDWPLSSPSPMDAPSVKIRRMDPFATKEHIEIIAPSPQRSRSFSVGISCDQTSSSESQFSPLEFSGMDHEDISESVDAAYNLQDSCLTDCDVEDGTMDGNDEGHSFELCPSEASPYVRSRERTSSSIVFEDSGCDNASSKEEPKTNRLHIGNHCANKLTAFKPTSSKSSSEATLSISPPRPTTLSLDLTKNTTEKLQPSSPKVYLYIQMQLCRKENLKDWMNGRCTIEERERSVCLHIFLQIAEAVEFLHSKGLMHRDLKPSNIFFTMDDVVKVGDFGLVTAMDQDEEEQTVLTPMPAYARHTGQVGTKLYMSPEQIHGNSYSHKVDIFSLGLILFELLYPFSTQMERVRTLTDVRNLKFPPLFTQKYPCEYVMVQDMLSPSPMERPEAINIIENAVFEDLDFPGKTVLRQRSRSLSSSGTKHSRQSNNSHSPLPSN

[15] = target: Eukaryotic translation initiation factor 2 subunit 1 (Homo sapiens) (UniProt P05198); experiment: Inhibition of eIF2alpha phosphorylation in HEK293T cells at 100 nM pretreated with compound for 12 hrs followed by thapsigargin addition and measured after 24 hrs by immunoblotting analysis; assay type: cell-based; details: time 36.0 hrs
Eukaryotic translation initiation factor 2 subunit 1 (Homo sapiens), sequence (P05198 whole entry): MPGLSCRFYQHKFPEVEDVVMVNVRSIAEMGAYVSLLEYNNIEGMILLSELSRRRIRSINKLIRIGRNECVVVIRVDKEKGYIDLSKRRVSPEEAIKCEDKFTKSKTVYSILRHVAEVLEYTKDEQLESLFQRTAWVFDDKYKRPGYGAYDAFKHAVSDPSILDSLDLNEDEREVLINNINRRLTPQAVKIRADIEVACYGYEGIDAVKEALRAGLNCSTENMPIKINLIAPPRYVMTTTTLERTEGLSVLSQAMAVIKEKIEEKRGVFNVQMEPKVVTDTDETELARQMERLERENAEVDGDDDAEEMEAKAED

SMILES: O=C1CCC(N2C(=O)c3cccc(N4CCN(C(=O)CCCCCCCCNC(=O)c5ccc(O[C@H]6CC[C@H](NC(=O)Nc7ccc(OC(F)(F)F)cc7)CC6)cc5)CC4)c3C2=O)C(=O)N1 (stereo not given in full)
IC50 [1]: 0.9 nM
viability at 1 µM [2]: -47%

SMILES: O=C1CCC(N2Cc3ccc(N4CCN(CC5CCN(C(=O)CCCCCCCCNC(=O)c6ccc(O[C@H]7CC[C@H](NC(=O)Nc8ccc(OC(F)(F)F)cc8)CC7)cc6)CC5)CC4)cc3C2=O)C(=O)N1 (stereo not given in full)
IC50 [1]: 4.8 nM
viability at 1 µM [2]: 7%
half-life [3]: 7.1 h
Tmax [4]: 0.33 h
Cmax [5]: 3500 ng/mL
AUC(0-inf) [6]: 31000 ng·h/mL
MRT inf [7]: 9.3 h

IC50 [1]: 4.6 nM
SMILES: O=C1CCC(N2C(=O)c3cccc(NCCOCCOCCOCCOCCC(=O)N4CCC(NC(=O)Nc5ccc(OC(F)(F)F)cc5)CC4)c3C2=O)C(=O)N1 (stereo not given)

SMILES: O=C1CCC(N2C(=O)c3cccc(N4CCN(CC5CCN(C(=O)CCCCCCCCNC(=O)c6ccc(O[C@H]7CC[C@H](NC(=O)Nc8ccc(OC(F)(F)F)cc8)CC7)cc6)CC5)CC4)c3C2=O)C(=O)N1 (stereo not given in full)
IC50 [1]: 1.8 nM
viability at 1 µM [2]: 24%

SMILES: O=C1CCC(N2C(=O)c3cc(F)c(N4CCN(C(=O)CCCCCCCCNC(=O)c5ccc(O[C@H]6CC[C@H](NC(=O)Nc7ccc(OC(F)(F)F)cc7)CC6)cc5)CC4)cc3C2=O)C(=O)N1 (stereo not given in full)
IC50 [1]: 2.2 nM
viability at 1 µM [2]: -6%

degraded at 24 h [8]: ~100%
half-life [9]: 1.1 h
half-life [10]: 35.4 s
CLint scaled [11]: 552 L/h/kg
Stability [12]: 90%
inhibition [14]: inactive
inhibition [15]: inactive
SMILES: O=C(COc1cccc2c1C(=O)N(C1CCC(=O)NC1=O)C2=O)NCCOCCOCCOCCOCCNC(=O)c1ccc(O[C@H]2CC[C@H](NC(=O)Nc3ccc(OC(F)(F)F)cc3)CC2)cc1 (stereo not given in full)
inhibition [13]: inactive

inhibition [14]: inactive
inhibition [15]: inactive
SMILES: O=C(Nc1ccc(OC(F)(F)F)cc1)N[C@H]1CC[C@H](Oc2ccc(C(=O)O)cc2)CC1
inhibition [13]: inactive
